Values joined by “and” are separate entries in the source; they are usually repeats but may differ in a detail not shown here. Equal entries are not always repeated.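 Five concentrations, 48 hours, 96-well plates. GI50 is the concentration that inhibits growth by half. TGI: total growth inhibition.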
Assays:
Assay in all cases: growth of human tumour cells (NCI), 48 h
[1] = test system: 786-0 renal
[2] = test system: ACHN renal
[3] = test system: EKVX NSCLC
[4] = test system: HS 578T breast
[5] = test system: MOLT-4 leukemia
[6] = test system: NCI/ADR-RES ovarian
[7] = test system: SF-268 CNS
[8] = test system: SK-MEL-2 melanoma
[9] = test system: SK-MEL-28 melanoma
[10] = test system: T-47D breast

Row | SMILES | GI50 [1] | TGI [1] | GI50 [2] | TGI [2] | GI50 [3] | TGI [3] | GI50 [4] | TGI [4] | GI50 [5] | TGI [5] | GI50 [6] | TGI [6] | GI50 [7] | TGI [7] | GI50 [8] | TGI [8] | GI50 [9] | TGI [9] | GI50 [10] | TGI [10]
1 | CNC(=O)Oc1cc(C)c(/C=C/c2cncc(C(=O)NC)c2)c(C)c1 | > 25 µM | > 25 µM | > 25 µM | > 25 µM | > 25 µM | > 25 µM | 12900 nM | > 25 µM | > 25 µM | > 25 µM | > 25000 nM | > 25 µM | > 25 µM | > 25 µM | > 25 µM | > 25 µM | 18.8 µM | > 25 µM | > 25000 nM | > 25 µM
2 | CN(C)CCCNC(=O)c1cncnc1Nc1ccc(OCc2cccc(F)c2)c(Cl)c1 | 1.66 µM | 3.1 µM | 1.7 µM | 3.06 µM | 1.58 µM | 3.15 µM | 1560 nM | 3.3 µM | 1.67 µM | 3.4 µM | 1890 nM | 3.77 µM | 1.81 µM | 3.34 µM | 2.08 µM | 4.07 µM | 1.79 µM | 3.22 µM | 1820 nM | 4.28 µM
3 | CC1(C)CCC(C)(C)c2c1ccc(O)c2Cc1c(O)ccc2c1C(C)(C)CCC2(C)C | – | 3.61 µM | – | 3.19 µM | – | 9.16 µM | – | 8.85 µM | – | 4.71 µM | – | 4.43 µM | – | 6.75 µM | – | 3.19 µM | – | 4.93 µM | – | 3.8 µM
4 | O=c1c2c3c(sc2nc(N/N=C/c2ccc(Br)cc2)n1Cc1ccccc1)CCCC3 | 3.07 µM | > 100 µM | > 100 µM | > 100 µM | 7.76 µM | > 100 µM | > 100000 nM | > 100 µM | 3.81 µM | > 100 µM | > 100000 nM | > 100 µM | 14.1 µM | > 100 µM | 6.08 µM | > 100 µM | > 100 µM | > 100 µM | 21200 nM | > 100 µM
5 | CC(=O)Oc1cc2c(OC(C)=O)c(-c3c(C)cc4c(C(C)C)c(OC(C)=O)c(OC(C)=O)cc4c3OC(C)=O)c(C)cc2c(C(C)C)c1OC(C)=O | 7.26 µM and 6.91 µM and 11.4 µM | 20.8 µM and 16.5 µM and 35.4 µM | 5.56 µM and 4.86 µM and 8.79 µM | 13.2 µM and 11.6 µM and 22.8 µM | 4.82 µM and 4.81 µM and 9.21 µM | 10.6 µM and 9.92 µM and 26.7 µM | 18700 nM and 20100 nM and 8850 nM | 49.8 µM and 55.2 µM and 21.6 µM | 4.48 µM and 23.6 µM and 6.76 µM | 14.9 µM and > 100 µM and 21.2 µM | 7870 nM and 8950 nM and 20000 nM | 33.1 µM and 32.7 µM and > 55.3 µM | 6.91 µM and 7.21 µM and 11.7 µM | 39.7 µM and 29 µM and 37.4 µM | 7.83 µM and 10.8 µM | 31.8 µM | 5.12 µM and 15.3 µM and 18.8 µM | 12.4 µM and 35.1 µM and 41.1 µM | > 100000 nM and 10200 nM and 19100 nM | > 100 µM and > 25.2 µM and 36.1 µM
6 | COc1cc(-c2ncn(/C=C\C(=O)OC(C)C)n2)cc(C(F)(F)F)c1 | 0.101 µM and 0.098 µM | 2.61 µM and 3.25 µM | 0.0605 µM and 0.0657 µM | 12.9 µM and 13 µM | 2.6 µM | 19.5 µM | 254 nM and 243 nM | > 65.9 µM and 6.71 µM | 0.0302 µM and 0.0282 µM | – | 65.8 nM and 94.4 nM | 11.5 µM and 12.7 µM | 0.0493 µM and 0.0487 µM | 8 µM and 3.58 µM | 0.0676 µM and 0.0501 µM | 1.53 µM and 0.489 µM | 0.0461 µM and 0.0693 µM | 2.24 µM and 8.58 µM | 120 nM and 66.6 nM | 15 µM and 12 µM
7 | COc1ccc2c(c1OC)OCC(CN(C)C)C2=O (centres undefined) | – | 25.9 µM | – | 31.7 µM | – | 49.9 µM | – | > 87.4 µM | – | 5.32 µM | – | 72.1 µM | – | 53.2 µM | – | 30.5 µM | – | 32.3 µM | – | > 62.2 µM
8 | O=S(=O)(Nc1cc(Cl)ccc1Cl)c1ccc(-c2cnc(C3CC3)o2)cc1 | 0.539 µM | 20.9 µM | 4.1 µM | 76.6 µM | 5.24 µM | 85.4 µM | 701 nM | 24 µM | 1.64 µM | > 100 µM | 1220 nM | 82.6 µM | 10.7 µM | 71.3 µM | 11.1 µM | 68.8 µM | 6.21 µM | 82.8 µM | 1940 nM | > 100 µM
9 | COc1cc(OC)c(NC(=O)c2cc3ccccc3cc2O)cc1Cl | 4.51 µM | > 100 µM | 2.51 µM | 7.19 µM | 2.22 µM | 28 µM | 2720 nM | 8.95 µM | 3.98 µM | 30.3 µM | 2630 nM | 9.33 µM | 3.66 µM | 33.4 µM | 2.25 µM | 6.14 µM | 3.6 µM | 17.3 µM | 2290 nM | > 100 µM

From PubChem BioAssay (NCI)
